According to patent US20070218475A1, “Efficient drug screening for protein targets” (priority 2005, published 2007):

Assays:
[1] = target: T1, Smo protein from Drosophila (Drosophila melanogaster, UniProt P91682); experiment: Fluorescence (BODIPY-cyclopamine) binding assay, Cos-1 cells expressing Drosophila Smo; conditions: flow cytometry
T1 construct: expressed in transfected cells; host or cells: Cos-1
T1 sequence (P91682 32-1036): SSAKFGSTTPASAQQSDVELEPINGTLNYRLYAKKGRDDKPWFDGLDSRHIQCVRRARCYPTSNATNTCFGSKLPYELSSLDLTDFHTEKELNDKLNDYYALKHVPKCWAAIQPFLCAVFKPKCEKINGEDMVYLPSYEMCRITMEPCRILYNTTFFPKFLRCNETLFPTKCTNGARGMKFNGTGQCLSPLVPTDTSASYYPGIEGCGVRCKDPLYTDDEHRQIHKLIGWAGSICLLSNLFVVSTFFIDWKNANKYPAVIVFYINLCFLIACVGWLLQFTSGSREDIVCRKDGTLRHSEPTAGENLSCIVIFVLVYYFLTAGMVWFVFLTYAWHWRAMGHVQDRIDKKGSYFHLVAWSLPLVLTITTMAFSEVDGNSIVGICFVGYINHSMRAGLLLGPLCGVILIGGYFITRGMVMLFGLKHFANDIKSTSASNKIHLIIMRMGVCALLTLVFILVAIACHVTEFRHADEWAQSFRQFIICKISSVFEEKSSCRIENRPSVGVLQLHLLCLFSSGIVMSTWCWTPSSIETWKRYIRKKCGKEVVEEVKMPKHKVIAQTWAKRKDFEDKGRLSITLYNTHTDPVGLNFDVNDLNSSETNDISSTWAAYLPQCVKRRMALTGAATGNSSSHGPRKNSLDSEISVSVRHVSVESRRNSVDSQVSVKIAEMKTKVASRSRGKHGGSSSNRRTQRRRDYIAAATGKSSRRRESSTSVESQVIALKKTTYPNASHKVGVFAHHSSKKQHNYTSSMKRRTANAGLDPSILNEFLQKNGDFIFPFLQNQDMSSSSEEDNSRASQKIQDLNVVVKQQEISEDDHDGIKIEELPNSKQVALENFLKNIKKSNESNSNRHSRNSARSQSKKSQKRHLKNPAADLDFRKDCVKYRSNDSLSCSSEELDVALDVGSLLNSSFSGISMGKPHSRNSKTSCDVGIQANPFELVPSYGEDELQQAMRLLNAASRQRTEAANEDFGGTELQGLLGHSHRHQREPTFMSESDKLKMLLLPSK
Protocol: (§1) Fluorescence binding assay: Cos-1 cells were transfected in 6-well plates with the described expression vectors (1 μg/well), and after two days, incubated in DMEM containing 10% fetal bovine serum, 5 nM BODIPY-cyclopamine, and various concentrations of the indicated competitors for 4-6 h at 37° C. For flow cytometry experiments, the cells were then trypsinized, collected by centrifugation, resuspended in phenol red-free DMEM containing 0.5% bovine calf serum, and analyzed for green fluorescence (FACScan, Beckton Dickinson). A fluorescence intensity range that excludes non-transfected cells was then selected for quantification of specific BODIPY-cyclopamine binding (see brackets in FIGS. 2C, 2D, and 3A). Curve fitting analysis was performed with Kaleidograph (Synergy Software).

SmoΔCT = target: T2, SmoΔCT (Mus musculus, UniProt P56726); experiment: Fluorescence (BODIPY-cyclopamine) binding assay, Cos-1 cells expressing SmoΔCT; conditions: Cos-1 cells, flow cytometry
T2 construct: expressed in transfected cells; host or cells: Cos-1
T2 sequence (P56726 33-555 limits assumed): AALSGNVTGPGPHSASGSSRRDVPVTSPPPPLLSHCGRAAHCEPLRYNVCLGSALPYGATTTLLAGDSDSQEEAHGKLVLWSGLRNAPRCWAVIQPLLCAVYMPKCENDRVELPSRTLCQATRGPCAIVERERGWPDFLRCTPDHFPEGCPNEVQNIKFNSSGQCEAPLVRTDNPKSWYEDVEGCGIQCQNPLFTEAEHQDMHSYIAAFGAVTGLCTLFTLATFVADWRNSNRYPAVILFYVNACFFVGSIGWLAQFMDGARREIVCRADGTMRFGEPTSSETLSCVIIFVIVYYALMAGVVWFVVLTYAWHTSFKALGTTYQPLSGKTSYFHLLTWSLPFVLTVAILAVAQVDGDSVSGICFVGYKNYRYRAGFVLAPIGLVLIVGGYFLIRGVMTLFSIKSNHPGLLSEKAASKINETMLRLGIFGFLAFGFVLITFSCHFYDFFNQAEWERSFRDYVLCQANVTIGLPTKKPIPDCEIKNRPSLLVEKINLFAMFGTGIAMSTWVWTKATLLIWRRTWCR
Excerpt: Preparation of Smo fusion proteins and deletion mutants: Both Smo-Myc3 and SmoA1-Myc3 are C-terminally fused to three consecutive Myc epitopes. […] Smo-GFP is comprised of green fluorescent protein fused to the C-terminus of Smo, and the fluorescent proteins in SmoA1-YFP, and SmoA1-GFP are similarly fused to the C-terminus of SmoA1. All constructs were generated by PCR and verified by DNA sequencing.
For flow cytometry experiments, the cells were then trypsinized, collected by centrifugation, resuspended in phenol red-free DMEM containing 0.5% bovine calf serum, and analyzed for green fluorescence (FACScan, Beckton Dickinson). […] Curve fitting analysis was performed with Kaleidograph (Synergy Software).

mouse Frizzled7 protein = target: T3, mouse Frizzled7 protein (Mus musculus, UniProt Q61090); experiment: Fluorescence (BODIPY-cyclopamine) binding assay, Cos-1 cells expressing Frizzled7; conditions: flow cytometry
T3 construct: expressed in transfected cells; host or cells: Cos-1
Protocol: as §1

CC1=C2CC3C(CC=C4C[C@@H](O)CCC43C)C2CCC12O[C@@H]1CC(C)CN(CCNC(=O)CCCCCNC(=O)CCC3=[N+]4C(=Cc5c(C)cc(C)n5[B-]4(F)F)C=C3)C1C2C (stereo partly drawn) [BODIPY-cyclopamine]
binding to cells expressing Drosophila Smo [1]: did not bind | binding to cells expressing SmoΔCT (SmoΔCT): can bind | binding to cells expressing mouse Frizzled7 (mouse Frizzled7 protein): did not bind
